This is an account of results in patent US4359461A, “Mono-, di- and tri-adamantylcarbonyl- digalactopyranosyl- glucopyranosyl- fructofuranose sulfate salts” (American Cyanamid Company, priority 1981, dated 1982).

In assay [1] the test system is shunt pathway. As to the kind of experiment: Test Code 036 (C-Shunt inhibitor), lysis of human erythrocytes in autologous serum via shunt pathway activated by cobra venom factor. Format: biochemical. The conditions noted are these: activity in wells, serial dilution assay; higher well number indicates higher activity. The text has this:
(§1) An active inhibitor protects C2 from C1 and C4; (ii) Test Code 035 (C3-C9 inhibitor)--This test determines the ability of the late components of human complement (C3-C9) to lyse EAC 142 in the presence of appropriate dilutions of the test compound. An active inhibitor protects EAC 142 from lysis by human C3-C9; (iii) Test Code 036 (C-Shunt inhibitor)--In this test human erythrocytes rendered fragile are lysed in autologous serum via the shunt pathway activated by cobra venom factor in the presence of appropriate dilutions of the test compound. Inhibition of the shunt pathway results in failure of lysis; (iv) Cap 50 Test--Here, appropriate amounts of the test compound are added to a pool of guinea pig serum in vitro, after which the complement level is determined in undiluted serum by the serum capillary tube assay of U.S. Pat. No. 3,876,376. The concentration of compound inhibiting 50% is reported; and (v) Guinea Pig Intraperitoneal Test (GPIP)--Guinea pigs weighing about 300 g are dosed intraperitoneally (i.p.) with 200 mg/kg of the test compound dissolved in saline and adjusted to pH 7-8. Approximately […], taken by orbital sinus puncture 30 minutes and one hour after injections, are collected directly into centrifuge tubes; 5 ml blood samples, taken by decapitation 2 hours after injection, are collected directly into diSPo® beakers. The samples were allowed to clot, centrifuged, and the resultant sera were assayed for complement activity using the capilllary complement assay. Percent inhibition is calculated by comparison with simultaneous controls. The results of the GPIP appear in Table I together with results of Test Code 026, 035, 036 and Cap 50.

Assay [2] concerns the target activated human C1 (Homo sapiens, UniProt P09871). As to the kind of experiment: Test Code 026 (C1 inhibitor). The format is biochemical. The conditions noted are these: activity in wells, serial dilution assay; higher well number indicates higher activity.
Excerpt: as §1

The test system of assay [3] is late components of human complement (C3-C9). Kind of assay: Test Code 035 (C3-C9 inhibitor), lysis of EAC 142. The format is biochemical. Particulars: activity in wells, serial dilution assay; higher well number indicates higher activity.
Excerpt: as §1

Assay [4] relates to complement activity of sera. As to the kind of experiment: Guinea Pig Intraperitoneal Test (GPIP). Format: in vivo. Particulars: 200 mg/kg i.p.
Excerpt: as §1

Counter-ions that a name gives are not always drawn.

Take `O=C(OC[C@H]1O[C@H](OC[C@H]2O[C@H](OC[C@H]3O[C@H](O[C@]4(COC(=O)C56CC7CC(CC(C7)C5)C6)O[C@H](COC(=O)C56CC7CC(CC(C7)C5)C6)[C@@H](OS(=O)(=O)O)[C@@H]4OS(=O)(=O)O)[C@H](OS(=O)(=O)O)[C@@H](OS(=O)(=O)O)[C@@H]3OS(=O)(=O)O)[C@H](OS(=O)(=O)O)[C@@H](OS(=O)(=O)O)[C@H]2OS(=O)(=O)O)[C@H](OS(=O)(=O)O)[C@@H](OS(=O)(=O)O)[C@H]1OS(=O)(=O)O)C12CC3CC(CC(C3)C1)C2` [1,6-Bis-O-(1-adamantylcarbonyl)-β-D-fructofuranosyl-6-O-1-adamantylcarbonyl-O-α-D-galactopyranosyl(1→6)-O-α-D-galactopyranosyl(1→6)-α-D-glucopyranoside, undecakis(H-sulfate), undecasodium salt]: the “C-Shunt Inhibition 036 Wells” value in assay [1] was “+3 Wells”. Further, the “C1 026 Wells” value in assay [2] is “+6 Wells”. For the same molecule, in assay [3], the “C-Late 035 Wells” value is reported as “+1 Wells”. Moreover, the “In Vivo Activity (Guinea pig) % Inhibition Intraperitoneal” value in assay [4] (30 minutes) is 11%; in assay [4] (60 minutes), 12%; in assay [4] (120 minutes) it was 72%.
Regarding `O=C(OC[C@H]1O[C@H](OC[C@H]2O[C@H](OC[C@H]3O[C@H](O[C@]4(COS(=O)(=O)O)O[C@H](COC(=O)C56CC7CC(CC(C7)C5)C6)[C@@H](OS(=O)(=O)O)[C@@H]4OS(=O)(=O)O)[C@H](OS(=O)(=O)O)[C@@H](OS(=O)(=O)O)[C@@H]3OS(=O)(=O)O)[C@H](OS(=O)(=O)O)[C@@H](OS(=O)(=O)O)[C@H]2OS(=O)(=O)O)[C@H](OS(=O)(=O)O)[C@@H](OS(=O)(=O)O)[C@H]1OS(=O)(=O)O)C12CC3CC(CC(C3)C1)C2` [6,6'"-Di-1-adamantanecarboxylate-O--α-D-galactopyranosyl(1→6] [6,6'"-Di-1-adamantanecarboxylate-O-α-D-galactopyranosyl(1→6)-O-α-D-galactopyranosyl(1→6)-O-α-D-glucopyranosyl-β-D-fructofuranose, dodecakis(H-sulfate), dodecasalt with trimethylamine], in assay [1], the “C-Shunt Inhibition 036 Wells” value is “+3 Wells”. The “C1 026 Wells” value in assay [2] was “+9 Wells”. In addition, the “C-Late 035 Wells” value in assay [3] is on record as “+1 Wells”.
For the molecule `O=C(OC[C@H]1O[C@H](OC[C@H]2O[C@H](OC[C@H]3O[C@H](O[C@]4(COS(=O)(=O)O)O[C@H](COC(=O)C56CC7CC(CC(C7)C5)C6)[C@@H](OS(=O)(=O)O)[C@@H]4OS(=O)(=O)O)[C@H](OS(=O)(=O)O)[C@@H](OS(=O)(=O)O)[C@@H]3OS(=O)(=O)O)[C@H](OS(=O)(=O)O)[C@@H](OS(=O)(=O)O)[C@H]2OS(=O)(=O)O)[C@H](OS(=O)(=O)O)[C@@H](OS(=O)(=O)O)[C@H]1OS(=O)(=O)O)C12CC3CC(CC(C3)C1)C2` [6,6'"-Di-1-admantanecarboxylate-O--α-D-galactopyranosyl(1→6)] [6,6'"-Di-1-adamantanecarboxylate-O-α-D-galactopyranosyl(1→6)-O-α-D-galactopyranosyl(1→6)-O-α-D-glucopyranosyl-β-D-fructofuranose, dodecakis(H-sulfate), dodecasodium salt], in assay [1], the “C-Shunt Inhibition 036 Wells” value is given as “+2 Wells”. Moreover, the “In Vivo Activity (Guinea pig) % Inhibition Intraperitoneal” value in assay [4] (30 minutes) amounted to 72%; in assay [4] (60 minutes), 92%; in assay [4] (120 minutes) it was 97%.
As for `O=C(OC[C@H]1O[C@@](COS(=O)(=O)O)(O[C@H]2O[C@H](CO[C@H]3O[C@H](CO[C@H]4O[C@H](COS(=O)(=O)O)[C@H](OS(=O)(=O)O)[C@H](OS(=O)(=O)O)[C@H]4OS(=O)(=O)O)[C@H](OS(=O)(=O)O)[C@H](OS(=O)(=O)O)[C@H]3OS(=O)(=O)O)[C@@H](OS(=O)(=O)O)[C@H](OS(=O)(=O)O)[C@H]2OS(=O)(=O)O)[C@@H](OS(=O)(=O)O)[C@@H]1OS(=O)(=O)O)C12CC3CC(CC(C3)C1)C2` [6-O-(1-Adamantylcarbonyl)-β-D-fructofuranosyl-O-α-D-galactopyranosyl(1→6)-O-α-D-galactopyranosyl(1→6)-α-D-glucopyranoside, tridecakis(H-sulfate), tridecasalt with trimethylamine], in assay [1], the “C-Shunt Inhibition 036 Wells” value is reported as “+5 Wells”.
In the case of `O=C(OC[C@H]1O[C@@](COS(=O)(=O)O)(O[C@H]2O[C@H](CO[C@H]3O[C@H](CO[C@H]4O[C@H](COS(=O)(=O)O)[C@H](OS(=O)(=O)O)[C@H](OS(=O)(=O)O)[C@H]4OS(=O)(=O)O)[C@H](OS(=O)(=O)O)[C@H](OS(=O)(=O)O)[C@H]3OS(=O)(=O)O)[C@@H](OS(=O)(=O)O)[C@H](OS(=O)(=O)O)[C@H]2OS(=O)(=O)O)[C@@H](OS(=O)(=O)O)[C@@H]1OS(=O)(=O)O)C12CC3CC(CC(C3)C1)C2` [6-O--(1-Adamantylcarbonyl)-β-D-fructofuranosyl-O--α-D-galact] [6-O-(1-Adamantylcarbonyl)-β-D-fructofuranosyl-O-α-D-galactopyranosyl(1→6)-O-α-D-galactopyranosyl(1→6)-α-D-glucopyranoside, tridecakis(H-sulfate), tridecasalt with trimethylamine], the “C1 026 Wells” value in assay [2] was “+10 Wells”.
As to `O=C(OC[C@H]1O[C@@](COS(=O)(=O)O)(O[C@H]2O[C@H](CO[C@H]3O[C@H](CO[C@H]4O[C@H](COS(=O)(=O)O)[C@H](OS(=O)(=O)O)[C@H](OS(=O)(=O)O)[C@H]4OS(=O)(=O)O)[C@H](OS(=O)(=O)O)[C@H](OS(=O)(=O)O)[C@H]3OS(=O)(=O)O)[C@@H](OS(=O)(=O)O)[C@H](OS(=O)(=O)O)[C@H]2OS(=O)(=O)O)[C@@H](OS(=O)(=O)O)[C@@H]1OS(=O)(=O)O)C12CC3CC(CC(C3)C1)C2` [6-O--(1-Adamantylcarbonyl)-β-D-fructofuranosyl-O--α-D-galact] [6-O-(1-Adamantylcarbonyl)-β-D-fructofuranosyl-O-α-D-galactopyranosyl(1→6)-O-α-D-galactopyranosyl(1→6)-α-D-glucopyranoside, tridecakis(H-sulfate), tridecasodium salt], the “C-Late 035 Wells” value in assay [3] is “+2 Wells”. For the same molecule, the “In Vivo Activity (Guinea pig) % Inhibition Intraperitoneal” value is 78% in assay [4] (2 hours), 71% in assay [4] (6 hours) and 59% in assay [4] (24 hours).
